{"source": "patent US20150038430A1", "about": "“THERAPEUTIC PEPTIDOMIMETIC MACROCYCLES” (AILERON Therapeutics, Inc., priority 2008, published 2015)", "key": {"Mcl-1": {"target": "Mcl-1", "assay": "Kd, μM | Mcl-1", "description": "(§1) Table printed on a drawing sheet, Figure 27\nHead of the field: Kd, μM | Mcl-1\n(§2) First copying reader's note: The last row (ABT-737) is a small-molecule comparator; the three plots above the table are not copied.\nWhere the first naming reader finds the target: head: Kd, μM | Mcl-1"}, "A-549": {"system": "A-549", "assay": "MTT cell viability assay, A-549", "type": "cell-based, human", "details": "20 μM, MTT 48 hrs, FIG. 1", "procedure": "Cell viability assays shown in FIGS. 1-32 were performed according to the following protocol. Tumor cell lines were grown in specific serum-supplemented media (growth media) as necessary. A day prior to the initiation of the study, cells were plated at optimal cell density (15,000 to 25,000 cells/well) in 200 μl growth media in microtiter plates. The next day, cells were washed twice in serum-free/phenol red-free RPMI complete media (assay buffer) and a final volume of 100 μl assay buffer was added to each well. Human peripheral blood lymphocytes (hPBLs) were isolated from Buffy coats (San Diego Blood Bank) using Ficoll-Paque gradient separation and plated on the day of the experiment at 25,000 cells/well.\nPeptidomimetic macrocycles were diluted from 1 mM stocks (100% DMSO) in sterile water to prepare 400 μM working solutions. The peptidomimetic macrocycles and controls were then diluted 10 or […] or alternatively serially two-fold diluted in assay buffer in dosing plates to provide concentrations of either 40 and 20 μM or between 1.2 and 40 μM, respectively. […]\nTowards the end of the 4 hour incubation time, 22 μl FBS was added to each well for a total concentration of 10% FBS. […] At the end of the incubation period, MTT assay was performed according to manufacturer's instructions (Sigma, catalog #M2128) and absorbance was measured at 560 nm using Dynex Opsys MR Plate reader. […]"}, "Bcl-2": {"target": "Bcl-2", "assay": "Kd, μM | Bcl-2", "description": "as §1\nHead of the field: Kd, μM | Bcl-2\nas §2\nWhere the first naming reader finds the target: head: Kd, μM | Bcl-2"}, "[1]": {"system": "SEMK2 human leukemia xenograft", "assay": "SEMK2 human leukemia xenograft model", "type": "in vivo, NOD-SCID mice", "details": "daily tail vein injection, 3, 10 or 30 mg/Kg/day", "procedure": "To determine the anti-oncogenic activity of peptidomimetic macrocycles of the invention in vivo, the compounds are, for example, given alone (IP, IV, SC, PO, by inhalation or nasal routes) or in combination with sub-optimal doses of relevant chemotherapy (e.g., cyclophosphamide, doxorubicin, etoposide). In one example, 5×10^6 SEMK2 cells (established from the bone marrow of a patient with acute lymphoblastic leukemia) that stably express luciferase are injected by tail vein in NOD-SCID, SCID-beige or NOD.IL2rg KO mice 3 hrs after they have been subjected to total body irradiation. Non-radiated mice may also be used for these studies. If left untreated, this form of leukemia is fatal in 3 weeks in this model. The leukemia is readily monitored, for example, by injecting the mice with D-luciferin (60 mg/kg) and imaging the anesthetized animals (e.g., Xenogen In Vivo Imaging System, Caliper Life Sciences, Hopkinton, Mass.). Total body bioluminescence is quantified by integration of photonic flux (photons/sec) by Living Image Software (Caliper Life Sciences, Hopkinton, Mass.). […] Optionally, the mice are imaged throughout the experiment every other day and survival monitored daily for the duration of the experiment. […]"}, "Bcl-xL": {"target": "Bcl-xL (Homo sapiens, UniProt Q07817)", "sequence (Q07817 whole entry, looked up)": "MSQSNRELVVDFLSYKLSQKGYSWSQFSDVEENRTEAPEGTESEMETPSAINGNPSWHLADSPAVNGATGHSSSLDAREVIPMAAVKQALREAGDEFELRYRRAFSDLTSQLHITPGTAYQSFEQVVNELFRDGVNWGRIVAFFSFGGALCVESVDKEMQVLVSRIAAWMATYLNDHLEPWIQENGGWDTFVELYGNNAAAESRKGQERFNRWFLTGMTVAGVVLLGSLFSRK", "assay": "Kd, μM | Bcl-xL", "description": "as §1\nHead of the field: Kd, μM | Bcl-xL\nWhere the first naming reader finds the target: head: Kd, μM | Bcl-xL"}}, "note": "Numbered stars: 1 amine (or outer) side, 2 acyl side, 3 side chain; on linkers, the order of the positions; unused ones are H or OH. Bridge positions count the residues as written; N and C are the ends. Square brackets hold non-standard residues; d marks the D form. Peptide text beside a SMILES is read from it. ξ: configuration not given here. ξαMeNle(6-ylidene) = CC(CCCC=[*:3])(N[*:1])C(=O)[*:2]; Nle = CCCC[C@H](N)C(=O)O"}
{"smiles": "CCCC[C@H](NC(=O)C1(C)CCCC=CCCCC(C)(NC(=O)[C@H](C)NC(=O)[C@H](CC(C)C)NC(=O)[C@H](Cc2c[nH]cn2)NC(=O)[C@H](CCCNC(=N)N)NC(=O)[C@H](C)NC(=O)[C@@H](NC(=O)[C@H](CC(N)=O)NC(=O)[C@H](CCCNC(=N)N)NC(=O)[C@@H](NC(=O)[C@@H](NC(=O)[C@H](CC(=O)O)NC(C)=O)[C@@H](C)CC)[C@@H](C)CC)[C@@H](C)CC)C(=O)N[C@@H](C(C)C)C(=O)NCC(=O)N[C@@H](CC(=O)O)C(=O)N1)C(=O)N[C@@H](CC(=O)O)C(=O)N[C@@H](CCCNC(=N)N)C(=O)N[C@@H](CO)C(=O)N[C@H](C(N)=O)[C@@H](C)CC", "note": "(some centres unmarked) [SP-1] (Ac-DIIRNIARHLA[ξαMeNle(6-ylidene)]VGD[ξαMeNle(6-ylidene)][Nle]DRSI-NH2; staple 12-16)", "values": [{"measurement": "Kd", "setting": "Mcl-1", "value": "< 0.1", "unit": "µM"}, {"measurement": "sensitivity of A-549 (NSCLC)", "setting": "A-549", "value": "resistant"}, {"measurement": "Kd", "setting": "Bcl-2", "value": 1, "unit": "µM"}, {"measurement": "tumor burden / tumor progression (total body bioluminescence)", "setting": "[1]", "value": "decreases tumor burden"}, {"measurement": "Kd", "setting": "Bcl-xL", "value": "< 0.1", "unit": "µM"}]}
